Where two headings read alike, the source gives them in different places.
Tests used:
[1] = tested on: genotype 1b (Con-1) HCV replicon; test: HCV Replicon Luciferase Assay; assay type: cell-based; conditions: Hepatitis C virus, 72 h, genotype 1b HCV replicon, Huh-7, Renilla luciferase, 3 days
Procedure: Cell Lines. The cell lines used to evaluate compounds consist of a human hepatocyte derived cell line (Huh-7) that constitutively expresses a genotype 1b (Con-1) HCV replicon or a genotype 1b (Con-1) HCV replicon with an asparagine replacing the cysteine at amino acid 316, or a genotype 2a (JFH-1) replicon, containing a Renilla luciferase reporter gene. These cells were maintained in Dulbecco's modified Eagle medium (DMEM) containing 10% FBS, 100 U/mL penicillin/streptomycin and 1.0 mg/mL G418.
HCV Replicon Luciferase Assay. To evaluate compound efficacy, titrated compounds were transferred to sterile 384-well tissue culture treated plates, and the plates were seeded with HCV replicon cells (50 μL at a density of 2.4×10^3 cells/well) in DMEM containing 4% FBS (final DMSO concentration at 0.5%). After 3 days incubation at 37° C., cells were analyzed for Renilla Luciferase activity using the EnduRen substrate (Promega cat #E6485) according to the manufacturer's directions. Briefly, the EnduRen substrate was diluted in DMEM and then added to the plates to a final concentration of 7.5 μM. The plates were incubated for at least 1 h at 37° C. then read on a Viewlux Imager (PerkinElmer) using a luminescence program. The 50% effective concentration (EC50) was calculated using the four-parameter logistic formula noted above.

[2] = extended dosing of combination regimens with interferon and ribavirin; cited from earlier work
[3] = tested on: HCV; conditions: single agent: transient decrease then rebound; cited from earlier work

Question: With `CNC(=O)c1c(-c2ccc(F)cc2)oc2cc(N(CCF)S(C)(=O)=O)c(-c3cccc(C(=O)N4CCn5cc(C(F)(F)F)nc5C4)c3)cc12` [Compound 1001] as the compound, how does the EC50 ([1]; read-out: EC50 1b (class)) read?
Answer: Its EC50 is < 0.1 µM.

Question: What about the EC50 ([1]; read-out: EC50 (uM) 1b) of the same compound?
Answer: The EC50 was 0.0349 µM.

Question: For `CNC(=O)c1c(-c2ccc(F)cc2)oc2cc(N(CCF)S(C)(=O)=O)c(-c3cccc(C(=O)N4CCn5c(nnc5C(F)(F)F)C4)c3)cc12` [Compound 1002], which EC50 ([1]; read-out: EC50 1b (class)) is on record?
Answer: The EC50 was 0.1 to 1 µM.

Question: With `CNC(=O)c1c(-c2ccc(F)cc2)oc2cc(N(CCF)S(C)(=O)=O)c(-c3cccc(C(=O)N4CCc5nc[nH]c5C4)c3)cc12` [Compound 1003] as the compound, how does the EC50 ([1]; read-out: EC50 1b (class)) read?
Answer: The EC50 was > 1 µM.

Question: What does the source list for `CNC(=O)c1c(-c2ccc(F)cc2)oc2cc(N(CCF)S(C)(=O)=O)c(-c3cccc(C(=O)N4CCc5[nH]ncc5C4)c3)cc12` [Compound 1004]?
Answer: EC50 ([1]; read-out: EC50 1b (class)): 0.1 to 1 µM; EC50 ([1]; read-out: EC50 (uM) 1b): 0.975 µM

Question: For `CNC(=O)c1c(-c2ccc(F)cc2)oc2cc(N(CCF)S(C)(=O)=O)c(-c3cccc(C(=O)N4CCn5cccc5C4c4cccnc4)c3)cc12` (stereo not drawn) [Compound 1005], which EC50 ([1]; read-out: EC50 1b (class)) is on record?
Answer: Its EC50 is < 0.1 µM.

Question: For `CNC(=O)c1c(-c2ccc(F)cc2)oc2cc(N(CCF)S(C)(=O)=O)c(-c3cccc(C(=O)N4CCC5CC54)c3)cc12` (stereo not drawn) [Compound 1006], which EC50 ([1]; read-out: EC50 1b (class)) is on record?
Answer: Its EC50 is < 0.1 µM.

Question: Which EC50 ([1]; read-out: EC50 1b (class)) does the source give for `CNC(=O)c1c(-c2ccc(F)cc2)oc2cc(N(CCF)S(C)(=O)=O)c(-c3cccc(C(=O)N4[C@H](C(N)=O)C[C@@H]5C[C@@H]54)c3)cc12` [Compound 1007] here?
Answer: The EC50 was > 1 µM.

Question: With `CNC(=O)c1c(-c2ccc(F)cc2)oc2cc(N(CCF)S(C)(=O)=O)c(-c3cccc(C(=O)N4CCC5(CCN(C(=O)OC(C)(C)C)C5)C4)c3)cc12` (stereo not drawn) [Compound 1008] as the compound, how does the EC50 ([1]; read-out: EC50 1b (class)) read?
Answer: The EC50 was < 0.1 µM.

Question: And the EC50 ([1]; read-out: EC50 (uM) 1b)?
Answer: Its EC50 is 0.0964 µM.

Question: For `CNC(=O)c1c(-c2ccc(F)cc2)oc2cc(N(CCF)S(C)(=O)=O)c(-c3cccc(C(=O)N4CC5CCN(C(=O)OC(C)(C)C)C5C4)c3)cc12` (stereo not drawn) [Compound 1009], which EC50 ([1]; read-out: EC50 1b (class)) is on record?
Answer: Its EC50 is 0.1 to 1 µM.

Question: For `CNC(=O)c1c(-c2ccc(F)cc2)oc2cc(N(CCF)S(C)(=O)=O)c(-c3cccc(C(=O)N4CC5CCN(C(=O)OC(C)(C)C)CC5C4)c3)cc12` (stereo not drawn) [Compound 1010], which EC50 ([1]; read-out: EC50 1b (class)) is on record?
Answer: Its EC50 is < 0.1 µM.

Question: Which hepatic toxicity [2] does the source give for `CNC(=O)c1c(-c2ccc(F)cc2)oc2cc(N(CCO)S(C)(=O)=O)c(C3CC3)cc12` [HCV-796] here?
Answer: Its hepatic toxicity is “hepatic toxicity”.

Question: What about the “HCV RNA levels in patients” value [3] of the same compound?
Answer: Its value is “reduce HCV RNA levels”.

From patent publication US10125137B2, “Benzofurans substituted with bicyclic secondary benzamide as HCV inhibitors” (BRISTOL-MYERS SQUIBB COMPANY, priority 2015, dated 2018)
